Results as given in PMC10258794, “To Fold or Not to Fold: Diastereomeric Optimization of an α-Helical Antimicrobial Peptide” (Journal of Medicinal Chemistry, 2023).
Converted amounts (≈) assume the structure as drawn. Like-named read-outs stand apart in the source and are kept apart here.

Legend:
[1] = test system: Burkolderia cenocepacia; experiment: microbe, parasite or virus in culture; conditions: for MIC Burkolderia cenocepacia: MDR strain, MH broth pH 7.4, 16–20 h, 37 °C
Description: (§1) Antimicrobial activity was determined for all peptides on E. coli W3110, P. aeruginosa PAO1, A. baumannii ATCC19606, K. pneumoniae NCTC418, and methicillin-resistant S. aureus COL and for selected peptides on P. aeruginosa PA14 and the polymyxin B-resistant derivatives PA14 4.13, PA14 4.18, and PA14 2P4 as well as the clinical isolates ZEM-1A and ZEM9A, K. pneumoniae OXA-48, Enterobacter cloacae, Stenotrophomonas maltophilia, B. cenocepacia, and Staphylococus epidermis. To determine the MIC, the broth microdilution method was used.[75] A single bacterial colony was grown in LB medium overnight at 37 °C and 180 rpm shaking. The compounds were prepared as stock solutions of 2 mg/mL in sterilized milliQ deionized water, added to the first well of 96-well sterile, polypropylene round-bottom microtiter plates (TPP, untreated, Corning Incorporated, Kennebunk, USA), and diluted serially by 1/2. […] The bacterial inoculum was prepared by measuring the absorbance of the overnight culture, which was diluted to concentration of the bacteria was quantified by measuring absorbance at 600 nm and diluted to an OD600 of 0.022 in MH medium pH 7.4 (Sigma-Aldrich, Buchs, Switzerland). The sample solutions (150 μL) were mixed with 4 μL of diluted bacterial suspension with a final inoculation of about 5 × 10^5 CFU. For each test, two columns of the plate were kept for sterility control (MH medium only) and growth control (MH medium with bacterial inoculum, no compound). […] The plates were incubated at 37 °C for 16–20 h under static conditions. 15 μL of 3-(4,5-dimethylthiazol-2-yl)-2,5-diphenyltetrazolium bromide (MTT)[76] (1 mg/mL in sterilized milliQ deionized water) was added to each well, and the plates were incubated at room temperature until MTT staining was completed. The MIC was defined as the lowest concentration of the dendrimer that inhibits the visible growth of the tested bacteria (yellow) with the unaided eye.

[2] = test system: Enterobacter cloacae; experiment: microbe, parasite or virus in culture; conditions: pH 7.4
Description: as §1

[3] = test system: P. aeruginosa PA14; experiment: microbe, parasite or virus in culture; conditions: for MIC PA14: MH broth pH 7.4, 16–20 h, 37 °C; for MIC P. aeruginosa PA14: supplementary CSV
Description: as §1

[4] = test system: P. aeruginosa ZEM-1A; experiment: microbe, parasite or virus in culture; conditions: pH 7.4
Description: as §1

[5] = test system: PA14 2P4 (pmrB); experiment: microbe, parasite or virus in culture; conditions: supplementary CSV
Description: as §1

[6] = test system: PA14 4.13 (phoQ); experiment: microbe, parasite or virus in culture; conditions: supplementary CSV
Description: as §1

[7] = test system: PA14 4.18 (pmrB); experiment: microbe, parasite or virus in culture; conditions: supplementary CSV
Description: as §1

[8] = test system: P. aeruginosa ZEM9A; experiment: microbe, parasite or virus in culture; type: cell-based, Pseudomonas aeruginosa; conditions: pH 7.4
Description: as §1

[9] = test system: K. pneumoniae Oxa-48; experiment: MIC broth microdilution, K. pneumoniae Oxa-48; type: cell-based, Klebsiella pneumoniae; conditions: MDR strain; MH broth pH 7.4, 16–20 h, 37 °C
Description: as §1

[10] = test system: Stenotrophomonas maltophilia; experiment: microbe, parasite or virus in culture; type: cell-based; conditions: pH 7.4
Description: as §1

[11] = test system: Staphylococcus epidermis; experiment: MIC broth microdilution, Staphylococcus epidermis; type: cell-based; conditions: pH 7.4
Description: as §1

[12] = test system: HEK293 cells; experiment: Alamar blue cytotoxicity, HEK293; type: cell-based, human; conditions: 24 h, mean ± SD, n = 3, read-out: Toxicity on HEK293 cells
Description: (§2) The A549 human lung adenocarcinoma cells are derived from a patient and were kindly given to us by Dr. Georgia Konstatinidou (Pharmacology Institute, Bern University). HEK293T cells were obtained from ATCC (CRL-11268). A549 and HEK293 were cultured in an incubator at 37 °C with 5% CO2 in RPMI-1640 (Gibco) and DMEM (Gibco) containing 10% fetal bovine serum (Thermo Fisher), 100 I.U./mL penicillin, and 100 μg/mL streptomycin (Gibco).
(§3) The viability of the cells was assessed with an AlamarBlue assay (ThermoFisher). Cells were seeded into 96-well plates, 4000 cells/well (HEK293) and 8000 cells/well (A549), the day before the experiment. Cells were then treated with the increasing concentration of the compound and incubated for 24 h at 37 °C in the presence of 5% CO2. The next day, the medium was removed and replaced by a 10% AlamarBlue solution in full growth medium (DMEM or RPMI-1640). The cells were incubated for 3–5 h at 37 °C with 5% CO2 in a humidified atmosphere. The fluorescence was then measured on a Tecan Infinite M1000 Pro plate reader at λex 560 nm and λem 590 nm. The value was normalized according to the untreated cells.

[13] = test system: A549 cells; experiment: Alamar blue cytotoxicity, A549; type: cell-based, human; conditions: 24 h, mean ± SD, n = 3, read-out: Toxicity on A549 lung cancern cells
Description: as §2, §3

[14] = test system: A. baumannii ATCC19606
Description: as §1

[15] = test system: E. coli W3110; conditions: MH broth pH 7.4, 16–20 h, 37 °C
Description: as §1

[16] = test system: K. pneumoniae NCTC418
Description: as §1

[17] = test system: P. aeruginosa PAO1
Description: as §1

[18] = test system: S. aureus COL MRSA; conditions: for MIC S. aureus COL MRSA: MH broth pH 7.4, 16–20 h, 37 °C; for MIC S. aureus COL: supplementary CSV, ranges of Table 1 given as one number
Description: as §1

[19] = test system: S. aureus Newman; conditions: for MIC S. aureus Newman: MH broth pH 7.4, 16–20 h, 37 °C; for MIC S. aureus Newmann: supplementary CSV
[20] = MH broth pH 7.4, 16–20 h, 37 °C
[21] = supplementary CSV, ranges of Table 1 given as one number

Compound | MIC Burkolderia cenocepacia [1] [µg/mL] | MIC Enterobacter cloacae [2] [µg/mL] | MIC PA14 [3] [µg/mL] | MIC P. aeruginosa PA14 [3] [µg/mL] | MIC ZEM-1A [4] [µg/mL] | MIC P. aeruginosaPA14 2P4 [5] [µg/mL] | MIC P. aeruginosa PA14 4.13 [6] [µg/mL] | MIC P. aeruginosa PA14 4.18 [7] [µg/mL] | MIC ZEM9A [8] [µg/mL] | MIC K. pneumoniae Oxa-48 [9] [µg/mL] | MIC Stenotrophomonas maltophilia [10] [µg/mL] | MIC Staphylococcus epidermis [11] [µg/mL] | IC50 [12] [µM] | IC50 [13] [µM] | MIC A. baumannii ATCC19606 [14, 20] [µg/mL] | MIC A. baumannii ATCC19606 [14, 21] [µg/mL] | MIC E. coli W3110 [15] [µg/mL] | MIC K. pneumoniae NCTC418 [16, 20] [µg/mL] | MIC K. pneumoniae NCTC418 [16, 21] [µg/mL] | MIC P. aeruginosa PAO1 [17, 20] [µg/mL] | also measured
CC(C)C[C@H](NC(=O)[C@H](CC(C)C)NC(=O)[C@H](CC(C)C)NC(=O)[C@H](CCCCN)NC(=O)[C@H](CC(C)C)NC(=O)[C@H](CC(C)C)NC(=O)[C@H](CCCCN)NC(=O)[C@H](CC(C)C)NC(=O)[C@H](CC(C)C)NC(=O)[C@H](CCCCN)NC(=O)[C@@H](N)CCCCN)C(N)=O [ln65] | >64 | 2 (≈ 1.51 µM) | 2 to 4 | 3 (≈ 2.27 µM) | 4 (≈ 3.03 µM) | 32 (≈ 24.2 µM) | 4 (≈ 3.03 µM) | 32 (≈ 24.2 µM) | 4 (≈ 3.03 µM) | 2 (≈ 1.51 µM) | 2 (≈ 1.51 µM) | 2 (≈ 1.51 µM) | 27 ± 5.4 | 20 ± 0.9 | 2 to 4 | 3 (≈ 2.27 µM) | 4 (≈ 3.03 µM) | 4 (≈ 3.03 µM) | 4 (≈ 3.03 µM) | 2 to 4 | MIC B. cenocepacia ([1]; supplementary CSV): > 64 µg/mL; MIC P. aeruginosa PAO1 [17, 21]: 3 µg/mL (≈ 2.27 µM); MIC S. aureus COL MRSA [18]: 4 µg/mL (≈ 3.03 µM); MIC S. aureus COL [18]: 4 µg/mL (≈ 3.03 µM); MIC S. aureus Newman [19]: 2 µg/mL (≈ 1.51 µM); MIC S. aureus Newmann [19]: 2 µg/mL (≈ 1.51 µM)
CC(C)C[C@H](NC(=O)[C@H](CC(C)C)NC(=O)[C@H](CC(C)C)NC(=O)[C@H](CCCCN)NC(=O)[C@H](CC(C)C)NC(=O)[C@H](CC(C)C)NC(=O)[C@H](CCCCN)NC(=O)[C@H](CC(C)C)NC(=O)[C@H](CC(C)C)NC(=O)[C@@H](CCCCN)NC(=O)[C@@H](N)CCCCN)C(N)=O [HP1] | >64 | 2 (≈ 1.51 µM) | 2 (≈ 1.51 µM) | 2 (≈ 1.51 µM) | 2 (≈ 1.51 µM) | 64 (≈ 48.4 µM) | 4 (≈ 3.03 µM) | 32 (≈ 24.2 µM) | 4 (≈ 3.03 µM) | 8 (≈ 6.05 µM) | 4 (≈ 3.03 µM) | 2 (≈ 1.51 µM) | 42.9 ± 2.6 | 2.7 ± 2.4 | 4 (≈ 3.03 µM) | 4 (≈ 3.03 µM) | 2 (≈ 1.51 µM) | 4 to 8 | 6 (≈ 4.54 µM) | 4 (≈ 3.03 µM) | MIC P. aeruginosa PAO1 [17, 21]: 4 µg/mL (≈ 3.03 µM); MIC S. aureus COL MRSA [18]: 2 µg/mL (≈ 1.51 µM); MIC S. aureus COL [18]: 2 µg/mL (≈ 1.51 µM); MIC S. aureus Newman [19]: 2 µg/mL (≈ 1.51 µM); MIC S. aureus Newmann [19]: 2 µg/mL (≈ 1.51 µM)
